Measurements published in ChEMBL document CHEMBL1201862, “PubChem BioAssay data set” (2004).
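Protocol summary: plate cells (96-well), add compound at 5 concentrations, incubate 48 h, interpolate endpoints linearly. GI50 = concentration required for 50% inhibition of growth.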 Active and inactive are the calls of the source. Cut-off read from the data, not from the text of the source: active = GI50 up to about 1.1 µM and inactive = higher.

Columns and labels:
Assay in all cases: inhibition of tumour cell growth, NCI panel, 48 h
HOP-62 = system: HOP-62
SK-MEL-28 = system: SK-MEL-28
COLO 205 = system: COLO 205
MDA-MB-231 = system: MDA-MB-231
HOP-92 = system: HOP-92
SNB-75 = system: SNB-75
RPMI-8226 = system: RPMI-8226
A549 = system: A549
BT-549 = system: BT-549
SK-OV-3 = system: SK-OV-3
NCI-H23 = system: NCI-H23
SW-620 = system: SW-620
EKVX = system: EKVX
ACHN = system: ACHN
CCRF-CEM = system: CCRF-CEM
T47D = system: T47D
UACC-257 = system: UACC-257
RXF 393 = system: RXF 393
786-0 = system: 786-0
Malme-3M = system: Malme-3M
MDA-N = system: MDA-N
KM12 = system: KM12
SN12C = system: SN12C
CAKI-1 = system: CAKI-1
NCI-H226 = system: NCI-H226
SR = system: SR
SF-268 = system: SF-268
OVCAR-5 = system: OVCAR-5
NCI-H522 = system: NCI-H522
PC-3 = system: PC-3
UO-31 = system: UO-31
LOX IMVI = system: LOX IMVI
MOLT-4 = system: MOLT-4
NCI/ADR-RES = system: NCI/ADR-RES
DU-145 = system: DU-145
A498 = system: A498
HCT-116 = system: HCT-116
SK-MEL-5 = system: SK-MEL-5
K562 = system: K562
OVCAR-3 = system: OVCAR-3
SK-MEL-2 = system: SK-MEL-2
Hs-578T = system: Hs-578T
M14 = system: M14
SNB-19 = system: SNB-19
HT-29 = system: HT-29
MDA-MB-435 = system: MDA-MB-435
TK-10 = system: TK-10
IGROV-1 = system: IGROV-1
HCT-15 = system: HCT-15
UACC-62 = system: UACC-62
OVCAR-8 = system: OVCAR-8
SF-295 = system: SF-295
U-251 = system: U-251
OVCAR-4 = system: OVCAR-4
NCI-H460 = system: NCI-H460
HCC 2998 = system: HCC 2998

CCOC(=O)C(C)c1nc2c(Cl)c3ncccc3cc2[nH]c1=O (stereo not drawn)
GI50 (HOP-62): 34.1 µM (inactive)
GI50 (SK-MEL-28): > 100 µM (inactive)
GI50 (COLO 205): > 100 µM (inactive)
GI50 (MDA-MB-231): 79.1 µM (inactive)
GI50 (HOP-92): 29.8 µM (inactive)
GI50 (SNB-75): 62.2 µM (inactive)
GI50 (RPMI-8226): 22.1 µM (inactive)
GI50 (A549): 53.2 µM (inactive)
GI50 (BT-549): 57 µM (inactive)
GI50 (SK-OV-3): > 100 µM (inactive)
GI50 (NCI-H23): 77.1 µM (inactive)
GI50 (SW-620): 75.2 µM (inactive)
GI50 (EKVX): 31 µM (inactive)
GI50 (ACHN): 22.6 µM (inactive)
GI50 (CCRF-CEM): 28.2 µM (inactive)
GI50 (T47D): 64.3 µM (inactive)
GI50 (UACC-257): > 100 µM (inactive)
GI50 (RXF 393): 62.8 µM (inactive)
GI50 (786-0): > 100 µM (inactive)
GI50 (Malme-3M): > 100 µM (inactive)
GI50 (MDA-N): > 100 µM (inactive)
GI50 (KM12): 43.8 µM (inactive)
GI50 (SN12C): > 100 µM (inactive)
GI50 (CAKI-1): 69.5 µM (inactive)
GI50 (NCI-H226): 53.3 µM (inactive)
GI50 (SR): 12.9 µM (inactive)
GI50 (SF-268): 41 µM (inactive)
GI50 (OVCAR-5): > 100 µM (inactive)
GI50 (NCI-H522): 50.7 µM (inactive)
GI50 (PC-3): 40.7 µM (inactive)
GI50 (UO-31): 23.7 µM (inactive)
GI50 (LOX IMVI): > 100 µM (inactive)
GI50 (MOLT-4): 31.4 µM (inactive)
GI50 (NCI/ADR-RES): 29.9 µM (inactive)
GI50 (DU-145): > 100 µM (inactive)
GI50 (A498): > 100 µM (inactive)
GI50 (HCT-116): 76.9 µM (inactive)
GI50 (SK-MEL-5): 30.5 µM (inactive)
GI50 (K562): 34 µM (inactive)
GI50 (OVCAR-3): 57.3 µM (inactive)
GI50 (SK-MEL-2): > 100 µM (inactive)
GI50 (Hs-578T): 23.2 µM (inactive)
GI50 (M14): 44.8 µM (inactive)
GI50 (SNB-19): > 100 µM (inactive)
GI50 (HT-29): 30.7 µM (inactive)
GI50 (MDA-MB-435): 84.5 µM (inactive)
GI50 (TK-10): 59.7 µM (inactive)
GI50 (IGROV-1): 62.2 µM (inactive)
GI50 (HCT-15): 57.3 µM
GI50 (UACC-62): 43.5 µM (inactive)
GI50 (OVCAR-8): 36.5 µM (inactive)
GI50 (SF-295): 79.8 µM (inactive)
GI50 (U-251): 30.8 µM (inactive)
GI50 (OVCAR-4): 57.9 µM (inactive)

CCOC(=O)c1sc2nc(SC)nc(N3CCCCC3)c2c1N
GI50 (HOP-62): > 100 µM (inactive)
GI50 (SK-MEL-28): > 100 µM (inactive)
GI50 (COLO 205): > 100 µM (inactive)
GI50 (MDA-MB-231): > 100 µM (inactive)
GI50 (HOP-92): > 100 µM (inactive)
GI50 (SNB-75): > 100 µM (inactive)
GI50 (RPMI-8226): > 100 µM (inactive)
GI50 (A549): > 100 µM (inactive)
GI50 (BT-549): > 100 µM (inactive)
GI50 (SK-OV-3): > 100 µM (inactive)
GI50 (NCI-H23): > 100 µM (inactive)
GI50 (SW-620): > 100 µM (inactive)
GI50 (ACHN): > 100 µM (inactive)
GI50 (T47D): > 100 µM (inactive)
GI50 (UACC-257): 5.07 µM (inactive)
GI50 (RXF 393): > 100 µM (inactive)
GI50 (786-0): > 100 µM (inactive)
GI50 (NCI-H460): > 100 µM (inactive)
GI50 (Malme-3M): > 100 µM (inactive)
GI50 (MDA-N): > 100 µM (inactive)
GI50 (KM12): > 100 µM (inactive)
GI50 (SN12C): > 100 µM (inactive)
GI50 (CAKI-1): > 100 µM (inactive)
GI50 (HCC 2998): > 100 µM (inactive)
GI50 (NCI-H226): > 100 µM (inactive)
GI50 (SR): > 100 µM (inactive)
GI50 (SF-268): > 100 µM (inactive)
GI50 (OVCAR-5): > 100 µM (inactive)
GI50 (NCI-H522): > 100 µM (inactive)
GI50 (PC-3): > 100 µM (inactive)
GI50 (UO-31): > 100 µM (inactive)
GI50 (LOX IMVI): > 100 µM (inactive)
GI50 (MOLT-4): > 100 µM (inactive)
GI50 (NCI/ADR-RES): > 100 µM (inactive)
GI50 (DU-145): > 100 µM (inactive)
GI50 (A498): > 100 µM (inactive)
GI50 (HCT-116): > 100 µM (inactive)
GI50 (SK-MEL-5): > 100 µM (inactive)
GI50 (K562): > 100 µM (inactive)
GI50 (OVCAR-3): > 100 µM (inactive)
GI50 (SK-MEL-2): > 100 µM (inactive)
GI50 (Hs-578T): > 100 µM (inactive)
GI50 (M14): > 100 µM (inactive)
GI50 (SNB-19): > 100 µM (inactive)
GI50 (HT-29): > 100 µM (inactive)
GI50 (MDA-MB-435): > 100 µM (inactive)
GI50 (TK-10): > 100 µM (inactive)
GI50 (IGROV-1): > 100 µM (inactive)
GI50 (HCT-15): > 100 µM
GI50 (UACC-62): > 100 µM (inactive)
GI50 (OVCAR-8): > 100 µM (inactive)
GI50 (SF-295): > 100 µM (inactive)
GI50 (U-251): > 100 µM (inactive)
GI50 (OVCAR-4): > 100 µM (inactive)

CNC(Cc1ccccc1)c1cccc(OC)c1O (stereo not drawn)
GI50 (HOP-62): > 100 µM (inactive)
GI50 (SK-MEL-28): > 100 µM (inactive)
GI50 (MDA-MB-231): > 100 µM (inactive)
GI50 (HOP-92): > 100 µM (inactive)
GI50 (A549): > 100 µM (inactive)
GI50 (BT-549): > 100 µM (inactive)
GI50 (NCI-H23): > 100 µM (inactive)
GI50 (SW-620): > 100 µM (inactive)
GI50 (EKVX): 92.9 µM (inactive)
GI50 (ACHN): > 100 µM (inactive)
GI50 (T47D): 5 µM (inactive)
GI50 (UACC-257): 18.6 µM (inactive)
GI50 (RXF 393): > 100 µM (inactive)
GI50 (786-0): > 100 µM (inactive)
GI50 (NCI-H460): > 100 µM (inactive)
GI50 (Malme-3M): > 100 µM (inactive)
GI50 (MDA-N): 99.3 µM (inactive)
GI50 (KM12): > 100 µM (inactive)
GI50 (SN12C): > 100 µM (inactive)
GI50 (CAKI-1): > 100 µM (inactive)
GI50 (NCI-H226): > 100 µM (inactive)
GI50 (SR): > 100 µM (inactive)
GI50 (SF-268): > 100 µM (inactive)
GI50 (OVCAR-5): > 100 µM (inactive)
GI50 (NCI-H522): > 100 µM (inactive)
GI50 (PC-3): 60.7 µM (inactive)
GI50 (UO-31): > 100 µM (inactive)
GI50 (LOX IMVI): > 100 µM (inactive)
GI50 (MOLT-4): > 100 µM (inactive)
GI50 (NCI/ADR-RES): > 100 µM (inactive)
GI50 (DU-145): > 100 µM (inactive)
GI50 (A498): > 100 µM (inactive)
GI50 (HCT-116): > 100 µM (inactive)
GI50 (SK-MEL-5): > 100 µM (inactive)
GI50 (K562): 98.2 µM (inactive)
GI50 (OVCAR-3): 60.5 µM (inactive)
GI50 (SK-MEL-2): > 100 µM (inactive)
GI50 (Hs-578T): > 100 µM (inactive)
GI50 (M14): > 100 µM (inactive)
GI50 (SNB-19): > 100 µM (inactive)
GI50 (HT-29): 91.6 µM (inactive)
GI50 (MDA-MB-435): > 100 µM (inactive)
GI50 (TK-10): > 100 µM (inactive)
GI50 (IGROV-1): > 100 µM (inactive)
GI50 (HCT-15): > 100 µM
GI50 (UACC-62): > 100 µM (inactive)
GI50 (OVCAR-8): > 100 µM (inactive)
GI50 (SF-295): > 100 µM (inactive)
GI50 (U-251): > 100 µM (inactive)
GI50 (OVCAR-4): > 100 µM (inactive)
